Test results as given in article PMC8434109, “Synthesis and Biological Activity of a Cytostatic Inhibitor of MLLr Leukemia Targeting the DOT1L Protein” (Molecules, 2021).

Assays:
MV4-11 cells (MLL-AF4) = experiment: Cell proliferation and viability, trypan blue counting; assay type: cell-based, human
Microsomal stability = assay type: in vitro ADME; details: mouse, liver microsomes
MV4-11 cells [1] = experiment: Flow cytometry cell cycle analysis (propidium iodide); assay type: cell-based, human; details: MV4-11, 1 µM
Description: (§1) A decrease in the S phase of the cell cycle was also observed from 24% (day 8) to 20% (day 10), 13% (day 12).
(§2) In a 12-well plate, 2 mL exponentially growing MV4-11 cells were plated with a density of 2 × 10^5 cells/mL. […] Culture media and drugs were replaced every 2–3 days and cells were split back to a density of 2 × 10^5 cells/mL at the same time. Cells were harvested on days 8, 10, 12 and split to allow the analysis of cell cycle and Annexin V staining simultaneously. The apoptosis ratio was detected by an Annexin V-APC/7-AAD double staining assay (SONY 3804610) and cells were prepared according to the manufacturer’s recommendations. Cells for the cell cycle analysis were collected by centrifugation at 500× g for 5 min at 4 °C. The pellets were washed once with cold PBS and then fixed with 70% ethanol on ice for 30 min. Afterwards, the cells were washed once with cold PBS and stained with propidium iodide (Invitrogen P3566) for 30 min at 37 °C. Samples were measured using an Attune NxT acoustic focusing cytometer (Life Technologies), data were analyzed by FlowJo.

H3K79me2 in MV4-11 cells = experiment: Western blot of H3K79me2 normalized to total H3; assay type: cell-based, human; details: MV4-11, 4 days, increasing concentrations
Description: Next, we evaluated the effect on the demethylation of H3K79 in MLL-AF9 MOLM13 cells (Figure 7B).
The non-adherent cell lines MV4-11, MOLM-13, and KOPN8 exponentially growing cells were plated in 12-well plates (1 plate for each experiment) at a rate of 500,000 cells per well at a final volume of 2 mL. The cells were incubated in the presence of increasing inhibitor concentrations (0.1, 0.32, 1, 3.2, 10 µM). The cells (1 to 2 million) were harvested at the time chosen according to the line in order to extract the histones and the RNAs.
For the isolation of histones from cells, 1 to 2 million cells were collected, after exposure to the chosen treatment, by centrifugation at 200× g and lysed by 5 min of incubation on ice in 250 μL of the nuclear extraction buffer (10 mM Tris-HCl, 10 mM MgCl2, 25 mM KCl, 1% Triton X-100, 8.6% sucrose, Roche Protease inhibitor tablet 1836145). The nuclei were collected by centrifugation at 600× g for 5 min at 4 °C. The supernatant was removed and the histones were extracted for 1 h with 0.4 N cold sulfuric acid. The extracts were clarified by centrifugation at 10,000× g for 10 min at 4 °C and transferred to a microcentrifuge tube containing a 10× volume of ice-cold acetone. The histones were precipitated at ‒20 °C overnight and recovered by centrifugation at 1500× g for 10 min in the form of a pellet and then resuspended in 80 μL of water. Histones were quantified by absorbance measured by a nanodrop at 276 nm.
After extraction, the histones (500ng) were separated on 4–20% Tris-Glycine gels (Invitrogen) and transferred onto a nitrocellulose membrane ([…]) using the iBlot® Gel Transfer Stacks Nitrocellulose kit Mini (Invitrogen). After blocking nonspecific sites for 1 h at room temperature in a solution of 1X TBS at 5% milk, the membrane was incubated with rabbit anti-H3K79me2 (ab3594, 1/1000) or anti-H3 (ab1791)1/1000) overnight at 4 °C or 1 h at RT. The membrane was then washed three times for 5 min in a 1X TBS solution containing 0.05% Tween20 and was then incubated with an HRP anti-rabbit secondary antibody (NA934V, 1/10,000) for 1 h at RT. […]

NOMO-1 cells (MLL-AF9) = experiment: Cell proliferation, trypan blue counting; assay type: cell-based; details: Homo sapiens, 360 h; NOMO-1 (AF9), 15-day treatment; read-out: EC50 of the proliferation inhibition
Description: (§3) For assessment of cell proliferation and viability in human cell lines, exponentially growing cells were placed, in triplicate, in 96-well plates at a density of 35,000 cells/well at a final volume of 100 µL. […] The viable cell number was determined every 3–4 days for up to 15 days to 21 days using trypan blue counting using Cellometer Disposable Counting Chambers for the Cellometer Mini Automated Cell Counter.

KOPN8 cells (MLL-ENL) = experiment: Cell proliferation, trypan blue counting; assay type: cell-based; details: Homo sapiens, KOPN-8, 360 h, 15-day treatment, read-out: EC50 of the proliferation inhibition
Description: as §3

MOLM-13 cells (MLL-AF9) = experiment: Cell proliferation, trypan blue counting; assay type: cell-based; details: Homo sapiens, 360 h; MOLM-13 (AF9), 15-day treatment; read-out: EC50 of the proliferation inhibition
MV4-11 cells [2] = experiment: Flow cytometry apoptosis analysis (Annexin V-APC/7-AAD); assay type: cell-based, human; details: MV4-11
Description: as §1, §2

recombinant hDOT1L = recombinant hDOT1L (Homo sapiens, UniProt Q8TEK3); experiment: AlphaLISA DOT1L enzymatic inhibition assay on purified nucleosomes
Chain of recombinant hDOT1L (Q8TEK3 1-416): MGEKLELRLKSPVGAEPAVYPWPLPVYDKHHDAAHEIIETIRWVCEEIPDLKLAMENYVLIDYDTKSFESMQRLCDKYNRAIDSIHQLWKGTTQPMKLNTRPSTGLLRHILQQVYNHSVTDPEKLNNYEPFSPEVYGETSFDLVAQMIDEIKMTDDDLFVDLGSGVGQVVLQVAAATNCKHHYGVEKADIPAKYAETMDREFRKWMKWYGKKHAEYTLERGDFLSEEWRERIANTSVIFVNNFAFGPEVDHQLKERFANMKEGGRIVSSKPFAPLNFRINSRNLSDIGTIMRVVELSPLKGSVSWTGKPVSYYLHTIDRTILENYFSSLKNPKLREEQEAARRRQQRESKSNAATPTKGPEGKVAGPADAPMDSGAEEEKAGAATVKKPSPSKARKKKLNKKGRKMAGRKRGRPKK

Q: Which results are given for CC(C)N(C[C@H]1O[C@@H](n2cnc3c(N)ncnc32)[C@H](O)[C@@H]1O)[C@H]1C[C@@H](CCc2nc3cc(C(C)(C)C)ccc3[nH]2)C1 [EPZ-5676, reference compound]?
A: EC50 (MV4-11 cells (MLL-AF4); Homo sapiens, 360 h, MV4-11 (AF4), 15-day treatment, read-out: EC50 of the proliferation inhibition): 21 ± 1 nM; effect on cell viability / proliferation (MV4-11 cells (MLL-AF4); MV4-11, after 8 days of treatment): cell viability decreased by half; half-life (Microsomal stability): 5.7 min; effect on the cell cycle (MV4-11 cells [1]): increase in cells in subG1; H3K79me2 methylation compared to DMSO treated cells (H3K79me2 in MV4-11 cells): efficient decrease in methylation; EC50 (NOMO-1 cells (MLL-AF9)): 562 ± 15 nM; EC50 (KOPN8 cells (MLL-ENL)): 86 ± 4 nM; EC50 (MOLM-13 cells (MLL-AF9)): 92 ± 2 nM; effect on apoptosis (MV4-11 cells [2]): increase in apoptosis

Q: For CC(C)[C@@H](CCCNC(=O)Nc1ccc(C(C)(C)C)cc1)N[C@H]1C[C@@H](n2cnc3c(N)ncnc32)[C@H](O)[C@@H]1O [Dia1, 1-((R)-4-(((1S,2R,3S,4R)-4-(6-amino-9H-purin-9-yl)-2,3-dihydroxycyclopentyl)amino)-5-methylhexyl)-3-(4-(tert-butyl)phenyl)urea], which IC50 (recombinant hDOT1L) is on record?
A: 316 nM

Q: For CC(C)N(CCCNC(=O)Nc1ccc(C(C)(C)C)cc1)C[C@H]1O[C@@H](n2ccc3c(N)ncnc32)[C@H](O)[C@@H]1O [EPZ-4777, reference compound], which half-life (Microsomal stability) is on record?
A: 5.3 min
